Results taken from patent US20060281763A1, “Carboxamide inhibitors of TGFbeta” (priority 2005, published 2006).

Biological target: T1, TGFβ R1 (Homo sapiens, UniProt P36897)
T1 sequence (P36897 34-503): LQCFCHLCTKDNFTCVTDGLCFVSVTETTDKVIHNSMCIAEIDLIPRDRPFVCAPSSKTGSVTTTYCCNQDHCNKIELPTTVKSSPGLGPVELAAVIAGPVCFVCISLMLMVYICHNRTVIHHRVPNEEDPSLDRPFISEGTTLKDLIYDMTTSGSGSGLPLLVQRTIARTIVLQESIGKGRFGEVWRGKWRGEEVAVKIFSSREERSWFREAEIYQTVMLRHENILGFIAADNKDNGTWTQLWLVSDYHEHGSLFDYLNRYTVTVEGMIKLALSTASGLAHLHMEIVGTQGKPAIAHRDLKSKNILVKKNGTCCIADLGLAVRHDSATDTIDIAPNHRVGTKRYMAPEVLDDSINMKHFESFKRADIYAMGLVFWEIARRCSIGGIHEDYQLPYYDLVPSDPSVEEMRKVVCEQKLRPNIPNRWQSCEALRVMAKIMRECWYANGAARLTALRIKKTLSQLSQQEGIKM
Experiment: TGFβ R1 autophosphorylation protocol (33P-ATP, phosphocellulose filter plate)
Type: biochemical
Conditions: 10 uM ATP, 170 nM TGFβ R1, 20 minutes at room temperature, read-out: IC50 for Kinase Inhibition
Procedure, shortened: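 Incorporation of 33P from γ-33P-ATP (10 uM ATP final) into the kinase itself (170 nM) measured by phosphocellulose capture and scintillation counting. Incubation 20 min at room temperature in 20 mM MOPS pH 7 with […]; final DMSO ≤1%.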

SMILES | IC50
COc1cnc(-c2cc(Cl)ccc2F)nc1Nc1ccncc1C(=O)N[C@@H]1C[C@H](C(=O)N(C)C)N(C(=O)OC(C)(C)C)C1 [Compound 106, 4-({4-[2-(5-Chloro-2-fluoro-phenyl)-5-methoxy-pyrimidin-4-ylamino]-pyridine-3-carbonyl}-amino)-2-dimethyl carbamoyl-pyrrolidine-1-carboxylic acid tert-butyl ester] | 4810 nM
COc1cnc(-c2cc(Cl)ccc2F)nc1Nc1ccncc1C(=O)NCCCN1CCCC1C(=O)N(C)C (stereo not drawn) [Compound 81, 4-[2-(5-Chloro-2-fluoro-phenyl)-5-methoxy-pyrimidin-4-ylamino]-N-[3-(2-dimethylcarbamoyl-pyrrolidin-1-yl)-propyl]-nicotinamide] | 120 nM
COc1cnc(-c2cc(Cl)ccc2F)nc1Nc1ccncc1C(=O)NCCCN1CC[C@@H](O)C1 [Compound 77, 4-[2-(5-Chloro-2-fluoro-phenyl)-5-methoxy-pyrimidin-4-ylamino]-N-[3-(3-hydroxy-pyrrolidin-1-yl)-propyl]-nicotinamide] | 40 nM
COC(=O)[C@H]1C[C@@H](NC(=O)c2cnccc2Nc2nc(-c3cc(Cl)ccc3F)ncc2OC)CN1C(=O)OC(C)(C)C [Compound 88, 4-({4-[2-(5-Chloro-2-fluoro-phenyl)-5-methoxy-pyrimidin-4-ylamino]-pyridine-3-carbonyl}-amino)-pyrrolidine-1,2-dicarboxylic acid 1-tert-butyl ester 2-methyl ester] | 14100 nM
CNCCNC(=O)c1cnccc1Nc1nc(-c2cc(Cl)ccc2F)ncc1N1CCCC1 [Compound 22, 4-[2-(5-Chloro-2-fluoro-phenyl)-5-pyrrolidin-1-yl-pyrimidin-4-ylamino]-N-(2-methylamino-ethyl)-nicotinamide] | 100 nM
COc1cnc(-c2cc(Cl)ccc2F)nc1Nc1ccncc1C(=O)NCCCNCCOC1O[C@H](CO)[C@@H](O)[C@H](O)[C@H]1O (stereo partly drawn) [Compound 134, 4-[2-(5-Chloro-2-fluoro-phenyl)-5-methoxy-pyrimidin-4-ylamino]-N-{3-[2-(3,4,5-trihydroxy-6-hydroxymethyl-tetrahydro-pyran-2-yloxy)-ethylamino]-propyl}-nicotinamide] | 12 nM

Same assay, conditions: 10 uM ATP, 170 nM TGFβ R1, room temperature 20 minutes, read-out: IC50 for Kinase Inhibition

SMILES | IC50
CC(C)c1cnc(-c2cc(Cl)ccc2F)nc1Nc1ccncc1C(=O)N1CCC[C@H](O)C1 [Compound 214, {4-[2-(5-Chloro-2-fluoro-phenyl)-5-isopropyl-pyrimidin-4-ylamino]-pyridin-3-yl}-(3-hydroxy-piperidin-1-yl)-methanone] | 283 nM
CC(C)c1cnc(-c2cc(Cl)ccc2F)nc1Nc1ccncc1C(=O)N[C@@H]1CCC[C@H]1O [Compound 236, 4-[2-(5-Chloro-2-fluoro-phenyl)-5-isopropyl-pyrimidin-4-ylamino]-N-(2-hydroxy-cyclopentyl)-nicotinamide] | 123 nM
CC(C)c1cnc(-c2cc(Cl)ccc2F)nc1Nc1ccncc1C(=O)NC1C[C@H]1CO (stereo in doubt) [Compound 216, 4-[2-(5-Chloro-2-fluoro-phenyl)-5-isopropyl-pyrimidin-4-ylamino]-N-(2-hydroxymethyl-cyclopropyl)-nicotinamide] | 10 nM
CC(C)c1cnc(-c2cc(Cl)ccc2F)nc1Nc1ccncc1C(=O)NC[C@H](C)OC(=O)CN [Compound 229, Amino-acetic acid 2-{[4-[2-(5-chloro-2-fluoro-phenyl)-5-isopropyl-pyrimidin-4-ylamino]-pyridine-3-carbonyl}-amino]-1-methyl-ethyl ester] | 19 nM
COCCCNC(=O)c1cnccc1Nc1nc(-c2cc(Cl)ccc2F)ncc1C(C)C [Compound 186, 4-[2-(5-Chloro-2-fluoro-phenyl)-5-isopropyl-pyrimidin-4-ylamino]-N-(3-methoxy-propyl)-nicotinamide] | 11 nM
CC(C)OCCCNC(=O)c1cnccc1Nc1nc(-c2cc(Cl)ccc2F)ncc1C(C)C [Compound 189, 4-[2-(5-Chloro-2-fluoro-phenyl)-5-isopropyl-pyrimidin-4-ylamino]-N-(3-isopropoxy-propyl)-nicotinamide] | 74 nM
